Test results from US20230295166A1, “ATR INHIBITORS AND USES THEREOF” (ANTENGENE DISCOVERY LIMITED, priority 2020, published 2023).

Tests used:
[1] = target: ATR kinase (Homo sapiens (Human), UniProt Q13535); experiment: ATR inhibition assay (mobility shift assay, phosphorylation of FAM-RAD17); assay type: biochemical; conditions: ATR kinase (Eurofins), substrate FAM-RAD17, mobility shift
Protocol: Assay 1: ATR Inhibition Assay
Detection of ATR kinase activity utilized the Mobility shift assay to measure the phosphorylation of the substrate protein FAM-RAD17 (GL, Cat. No. 514318, Lot. No. P19042-MJ524315). The assay was developed and conducted at Chempartner. All the test compounds were dissolved in 100% DMSO at concentration of 20 mM, then prepare compounds and conducted the assay as follows: • 1) Transfer 80 μl 20 mM compound to 40 μl of 100% DMSO in a 96-well plate. • 2) Serially dilute the compound by transferring 20 μl to 60 μl of 100% DMSO in the next well and so forth for a total of 10 concentrations. • 3) Add 100 μl of 100% DMSO to two empty wells for no compound control and no enzyme control in the same 96-well plate. Mark the plate as source plate. • 4) Transfer 40 μl of compound from source plate to a new 384-well plate as the intermediate plate. • 5) Transfer 60 nl compounds to assay plate by Echo. • 6) Add ATR kinase (Eurofins, Cat. No. 14-953, Lot. No. D14 JP007N) into Kinase base buffer (50 mM HEPES, pH 7.5; 0.0015% Brij-35; 0.01% Triton) to prepare 2× enzyme solution, then add 10 μl of 2× enzyme solution to each well of the 384-well assay plate, incubate at room temperature for 10 min. • 7) Add FAM-RAD17 and ATP (Sigma, Cat. No. A7699-1G, CAS No. 987-65-5) in the kinase base buffer to prepare 2×peptide solution, then add 10 μl to the assay plate. • 8) Incubate at 28° C. for specified period of time. Add 40 μl of stop buffer (100 mM HEPES, pH 7.5; 0.015% Brij-35; 0.2% Coating Reagent #3; 50 mM EDTA) to stop reaction. • 9) Collect data on Caliper. Convert conversion values to inhibition values.
Percent inhibition=(max−conversion)/(max−min)*100 wherein “max” stands for DMSO control; “min” stands for low control.
Fit the data in XLFit excel add-in version 5.4.0.8 to obtain IC50 values. Equation used is:
Y=Bottom+(Top−Bottom)/(1+(IC50/X)^HillSlope) wherein X means concentration in a format not transformed to logarithms.

[2] = tested on: LoVo (CCL-229) cells; experiment: Tumor cell anti-proliferation assay (CTG assay); assay type: cell-based; conditions: LoVo human colorectal cancer cells, 96 h, CellTiter-Glo
Protocol: Assay 2: Tumor Cell Anti-proliferation Assay (CTG Assay)
Human colorectal cancer cells HT-29 (HTB-38) and LoVo (CCL-229) were selected for the CTG assay, the two cell lines were originally obtained from the American Type Culture Collection (ATCC). FBS and appropriate additives were added into base medium to prepare complete medium, then the cell layer was briefly rinsed with 0.25% (w/v) Trypsin-0.038% (w/v) EDTA solution to remove all traces of serum that contains trypsin inhibitor. After that, appropriate volume of Trypsin-EDTA solution was added to flask and cells under an inverted microscope were observed until cell layer was dispersed. At last, appropriate volume of complete growth medium was added and cells were aspirated by gently pipetting. Numbers were collected and counted with Vi-cell XR and cell density was adjusted, cells were seeded into 96-well opaque-walled clear bottom tissue-culture treated plates in the CO2 incubator for 20-24 hours. All the test compounds were at 10 mM in DMSO. Compounds were then added to the cell media in 3-fold serial dilutions, the final DMSO concentration was 0.5%. Plates were incubated for 96 h at 5% CO2, 37° C. Before the measurement, the appropriate volume of CellTiter-Glo Buffer was transferred into the amber bottle containing CellTiter-Glo substrate to reconstitute the lyophilized enzyme/substrate mixture, mixed gently, thereby forming the CellTiter-Glo Reagent (Promega Cat. No. G7573). The plate and its contents were equilibrated to room temperature for approximately 30 minutes, then 100 μL of CellTiter-Glo Reagent was added to the assay plate, the contents were mixed for 2 minutes on an orbital shaker to induce cell lysis, incubated at room temperature for 10 minutes to stabilize luminescent signal. At last the clear bottom was pasted with white back seal and luminescence was recorded with Enspire. IC50 and GI50 values were calculated with XLFit curve fitting software using 4 Parameter Logistic Model Y=Bottom+(Top−Bottom)/(1+(IC50/X)^HillSlope).

ATR kinase, sequence (Q13535 whole entry): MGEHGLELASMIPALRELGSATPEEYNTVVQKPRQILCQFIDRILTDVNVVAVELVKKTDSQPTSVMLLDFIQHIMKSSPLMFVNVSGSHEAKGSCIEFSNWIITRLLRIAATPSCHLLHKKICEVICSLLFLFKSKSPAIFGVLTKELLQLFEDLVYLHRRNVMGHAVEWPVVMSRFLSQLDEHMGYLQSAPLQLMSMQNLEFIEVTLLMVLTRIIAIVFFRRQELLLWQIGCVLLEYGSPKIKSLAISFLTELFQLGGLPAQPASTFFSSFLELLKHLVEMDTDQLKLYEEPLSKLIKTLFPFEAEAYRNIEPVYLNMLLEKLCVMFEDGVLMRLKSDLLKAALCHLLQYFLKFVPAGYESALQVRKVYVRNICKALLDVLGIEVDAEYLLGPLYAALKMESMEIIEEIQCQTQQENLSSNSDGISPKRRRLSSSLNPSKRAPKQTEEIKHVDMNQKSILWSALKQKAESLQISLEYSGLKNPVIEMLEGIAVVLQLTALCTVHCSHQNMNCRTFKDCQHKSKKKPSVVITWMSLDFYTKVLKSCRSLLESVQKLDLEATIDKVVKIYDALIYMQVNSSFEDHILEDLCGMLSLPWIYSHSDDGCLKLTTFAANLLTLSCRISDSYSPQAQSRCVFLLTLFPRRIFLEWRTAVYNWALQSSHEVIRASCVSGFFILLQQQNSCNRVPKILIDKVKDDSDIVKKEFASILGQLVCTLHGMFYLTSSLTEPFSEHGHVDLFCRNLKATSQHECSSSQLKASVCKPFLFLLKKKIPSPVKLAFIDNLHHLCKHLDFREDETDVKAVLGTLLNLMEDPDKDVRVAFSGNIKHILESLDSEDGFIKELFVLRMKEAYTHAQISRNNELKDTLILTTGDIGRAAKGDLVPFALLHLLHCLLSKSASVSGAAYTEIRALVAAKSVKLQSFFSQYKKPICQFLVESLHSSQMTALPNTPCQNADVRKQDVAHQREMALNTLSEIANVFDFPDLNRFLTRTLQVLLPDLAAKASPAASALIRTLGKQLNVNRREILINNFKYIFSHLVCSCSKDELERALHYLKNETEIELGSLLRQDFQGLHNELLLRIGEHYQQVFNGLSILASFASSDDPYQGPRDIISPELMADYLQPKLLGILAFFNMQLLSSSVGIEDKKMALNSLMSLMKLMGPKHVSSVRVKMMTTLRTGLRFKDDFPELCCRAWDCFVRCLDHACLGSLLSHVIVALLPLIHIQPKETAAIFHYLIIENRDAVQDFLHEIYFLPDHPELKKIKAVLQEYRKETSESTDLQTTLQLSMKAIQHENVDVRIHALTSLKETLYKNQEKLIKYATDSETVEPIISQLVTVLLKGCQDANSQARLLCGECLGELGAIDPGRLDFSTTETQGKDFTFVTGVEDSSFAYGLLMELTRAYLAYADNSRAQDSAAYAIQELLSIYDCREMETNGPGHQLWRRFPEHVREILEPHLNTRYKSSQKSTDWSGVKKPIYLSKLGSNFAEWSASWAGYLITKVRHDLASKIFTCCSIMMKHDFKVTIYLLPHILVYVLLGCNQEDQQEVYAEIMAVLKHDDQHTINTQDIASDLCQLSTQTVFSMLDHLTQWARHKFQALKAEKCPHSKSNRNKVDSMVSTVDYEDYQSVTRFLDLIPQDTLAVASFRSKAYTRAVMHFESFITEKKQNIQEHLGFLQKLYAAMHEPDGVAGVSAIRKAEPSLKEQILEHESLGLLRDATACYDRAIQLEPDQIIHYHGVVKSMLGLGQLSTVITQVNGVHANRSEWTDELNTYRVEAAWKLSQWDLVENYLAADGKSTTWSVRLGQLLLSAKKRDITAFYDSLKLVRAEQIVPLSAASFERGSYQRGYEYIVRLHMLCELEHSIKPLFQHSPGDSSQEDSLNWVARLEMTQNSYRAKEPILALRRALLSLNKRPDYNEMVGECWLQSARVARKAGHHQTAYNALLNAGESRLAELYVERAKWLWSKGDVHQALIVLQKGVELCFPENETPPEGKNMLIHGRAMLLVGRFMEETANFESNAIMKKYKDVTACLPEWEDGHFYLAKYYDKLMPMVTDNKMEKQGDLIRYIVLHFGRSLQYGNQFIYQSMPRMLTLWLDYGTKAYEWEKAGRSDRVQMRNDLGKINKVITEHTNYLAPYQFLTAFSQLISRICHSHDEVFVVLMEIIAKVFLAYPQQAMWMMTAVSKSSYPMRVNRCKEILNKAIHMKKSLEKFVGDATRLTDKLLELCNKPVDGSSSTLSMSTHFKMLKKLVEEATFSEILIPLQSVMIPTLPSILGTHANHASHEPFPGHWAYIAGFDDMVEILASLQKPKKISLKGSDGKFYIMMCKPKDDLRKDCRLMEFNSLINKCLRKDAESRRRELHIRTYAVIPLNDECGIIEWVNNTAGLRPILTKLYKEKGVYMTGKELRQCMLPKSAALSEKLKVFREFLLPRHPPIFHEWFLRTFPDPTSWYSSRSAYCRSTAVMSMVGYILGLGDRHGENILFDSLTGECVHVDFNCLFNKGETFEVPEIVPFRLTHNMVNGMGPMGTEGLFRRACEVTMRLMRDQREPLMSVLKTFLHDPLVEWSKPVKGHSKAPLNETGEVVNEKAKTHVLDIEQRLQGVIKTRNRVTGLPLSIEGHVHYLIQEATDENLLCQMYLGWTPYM
ATR kinase, sequence (Q8WXE1 whole entry partner): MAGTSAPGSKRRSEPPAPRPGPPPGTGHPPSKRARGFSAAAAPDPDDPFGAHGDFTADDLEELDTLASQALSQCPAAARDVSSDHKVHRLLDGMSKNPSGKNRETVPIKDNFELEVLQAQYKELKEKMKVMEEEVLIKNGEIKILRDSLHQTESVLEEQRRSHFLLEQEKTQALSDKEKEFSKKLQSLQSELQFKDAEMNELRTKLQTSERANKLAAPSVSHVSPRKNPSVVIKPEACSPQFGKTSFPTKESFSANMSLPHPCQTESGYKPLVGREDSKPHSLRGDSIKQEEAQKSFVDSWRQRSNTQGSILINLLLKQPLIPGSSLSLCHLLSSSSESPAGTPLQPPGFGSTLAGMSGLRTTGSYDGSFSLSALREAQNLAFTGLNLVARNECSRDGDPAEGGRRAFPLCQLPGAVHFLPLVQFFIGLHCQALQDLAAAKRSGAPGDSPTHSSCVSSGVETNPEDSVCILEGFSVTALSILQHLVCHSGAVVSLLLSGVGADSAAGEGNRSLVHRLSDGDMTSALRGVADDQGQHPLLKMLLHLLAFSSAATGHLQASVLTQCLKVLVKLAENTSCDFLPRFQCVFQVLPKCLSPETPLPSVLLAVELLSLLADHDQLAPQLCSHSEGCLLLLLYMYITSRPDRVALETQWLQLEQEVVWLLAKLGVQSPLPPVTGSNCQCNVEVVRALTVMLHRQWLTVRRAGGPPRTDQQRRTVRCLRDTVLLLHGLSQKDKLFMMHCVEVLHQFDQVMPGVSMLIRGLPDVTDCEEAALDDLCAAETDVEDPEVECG

Structure (SMILES) | IC50 [1] [nM] | IC50 [2] [nM]
C[C@@H]1COCCN1c1cc(-c2ccnn2C)n2ncc(-c3ccn[nH]3)c2n1 [Example 1, (R)-3-methyl-4-(7-(1-methyl-1H-pyrazol-5-yl)-3-(1H-pyrazol-5-yl)pyrazolo[1,5-a]pyrimidin-5-yl)morpholine] | < 100 | 491
C[C@@H]1COCCN1c1cc(-c2cccnc2F)n2ncc(-c3ccn[nH]3)c2n1 [Example 6, (R)-4-(7-(2-fluoropyridin-3-yl)-3-(1H-pyrazol-5-yl)pyrazolo[1,5-a]pyrimidin-5-yl)-3-methylmorpholine] | < 100 | 803
C[C@@H]1COCCN1c1cc(C2(S(C)(=O)=O)CC2)n2ncc(-c3cc[nH]c3)c2n1 [Example 9, (R)-3-methyl-4-(7-(1-(methylsulfonyl)cyclopropyl)-3-(1H-pyrrol-3-yl)pyrazolo[1,5-a]pyrimidin-5-yl)morpholine] | < 100 | 
Cc1cc(-c2cnn3c(C4(S(C)(=O)=O)CC4)cc(N4CCOC[C@H]4C)nc23)[nH]n1 [Example 11, (R)-3-methyl-4-(3-(3-methyl-1H-pyrazol-5-yl)-7-(1-(methylsulfonyl)cyclopropyl)pyrazolo[1,5-a]pyrimidin-5-yl)morpholine] | < 100 | 384
Cc1cc(-c2cnn3c(-c4ccnn4C)cc(N4CCOC[C@H]4C)nc23)[nH]n1 [Example 18, (R)-3-methyl-4-(7-(1-methyl-1H-pyrazol-5-yl)-3-(3-methyl-1H-pyrazol-5-yl)pyrazolo[1,5-a]pyrimidin-5-yl)morpholine] | < 100 | 384
C[C@@H]1COCCN1c1cc(C2(S(C)(=O)=O)CC2)c2cnc(-c3ccn[nH]3)n2n1 [Example 30, (R)-3-methyl-4-(4-(1-(methylsulfonyl)cyclopropyl)-7-(1H-pyrazol-5-yl)imidazo[1,5-b]pyridazin-2-yl)morpholine] | < 100 | 152
Cc1cc(-c2ncc3c(C4(S(C)(=O)=O)CC4)cc(N4CCOC[C@H]4C)nn23)[nH]n1 [Example 31, (R)-3-methyl-4-(7-(3-methyl-1H-pyrazol-5-yl)-4-(1-(methylsulfonyl)cyclopropyl)imidazo[1,5-b]pyridazin-2-yl)morpholine] | < 100 | 84
CCP(=O)(CC)c1cc(N2CCOC[C@H]2C)nn2c(-c3ccn[nH]3)ncc12 [Example 39, (3R)-4-[4-(diethylphosphoryl)-7-(1H-pyrazol-5-yl)imidazo[1,5-b]pyridazin-2-yl]-3-methylmorpholine] | < 100 | 
Cc1cc(-c2nsc3c(-c4c(C)nnn4C)cc(N4CCOC[C@H]4C)nc23)[nH]n1 [Example 48, (R)-4-(7-(1,4-dimethyl-1H-1,2,3-triazol-5-yl)-3-(3-methyl-1H-pyrazol-5-yl)isothiazolo[4,5-b]pyridin-5-yl)-3-methylmorpholine] | < 100 | 33.3
Cc1cc(-c2nsc3c(C4(S(C)(=O)=O)CC4)cc(N4CCOC[C@H]4C)nc23)[nH]n1 [Example 50, (R)-3-methyl-4-(3-(3-methyl-1H-pyrazol-5-yl)-7-(1-(methylsulfonyl)cyclopropyl)isothiazolo[4,5-b]pyridin-5-yl)morpholine] | < 100 | 17
Cc1cc(-c2nsc3c(C4(C#N)CC4)cc(N4CCOC[C@H]4C)nc23)[nH]n1 [Example 52, (R)-1-(3-(3-methyl-1H-pyrazol-5-yl)-5-(3-methylmorpholino)isothiazolo [4,5-b]pyridin-7-yl)cyclopropane-1-carbonitrile] | < 100 | 17.7
C[C@@H]1COCCN1c1cc(C(C)(C)C#N)c2snc(-c3ccn[nH]3)c2n1 [Example 53, (R)-2-methyl-2-(5-(3-methylmorpholino)-3-(1H-pyrazol-5-yl)isothiazolo [4,5-b]pyridin-7-yl)propanenitrile] | < 100 | 12.8

Next, values leading:

IC50 [1] [nM] | IC50 [2] [nM] | Structure (SMILES)
< 100 | 516 | C[C@@H]1COCCN1c1cc(C2(S(C)(=O)=O)CC2)n2ncc(-c3ccn[nH]3)c2n1 [Example 5, (R)-3-methyl-4-(7-(1-(methylsulfonyl)cyclopropyl)-3-(1H-pyrazol-5-yl)pyrazolo[1,5-a]pyrimidin-5-yl)morpholine]
< 100 |  | C[C@@H]1COCCN1c1cc(-c2ccn[nH]2)n2ncc(-c3ccn[nH]3)c2n1 [Example 10, (R)-4-(3,7-di(1H-pyrazol-5-yl)pyrazolo[1,5-a]pyrimidin-5-yl)-3-methylmorpholine]
> 500 |  | Cc1cn[nH]c1-c1cnn2c(C3(S(C)(=O)=O)CC3)cc(N3CCOC[C@H]3C)nc12 [Example 14, (R)-3-methyl-4-(3-(4-methyl-1H-pyrazol-5-yl)-7-(1-(methylsulfonyl)cyclopropyl)pyrazolo[1,5-a]pyrimidin-5-yl)morpholine]
< 100 |  | C[C@@H]1COCCN1c1cc(-c2ccnn2C)c2ncc(-c3ccn[nH]3)n2n1 [Example 21, (R)-3-methyl-4-(8-(1-methyl-1H-pyrazol-5-yl)-3-(1H-pyrazol-5-yl)imidazo[1,2-b]pyridazin-6-yl)morpholine]
< 100 | 622 | C[C@@H]1COCCN1c1cc(C2(S(C)(=O)=O)CC2)c2ncc(-c3ccn[nH]3)n2n1 [Example 22, (R)-3-methyl-4-(8-(1-(methylsulfonyl)cyclopropyl)-3-(1H-pyrazol-5-yl)imidazo[1,2-b]pyridazin-6-yl)morpholine]
< 100 | 67 | C[C@@H]1COCCN1c1cc(-c2ccnn2C)c2cnc(-c3ccn[nH]3)n2n1 [Example 27, (R)-3-methyl-4-(4-(1-methyl-1H-pyrazol-5-yl)-7-(1H-pyrazol-5-yl)imidazo[1,5-b]pyridazin-2-yl)morpholine]
< 100 | 14 | C[C@@H]1COCCN1c1cc(-c2ccnn2C)c2snc(-c3ccn[nH]3)c2n1 [Example 29, (3R)-3-methyl-4-[7-(1-methyl-1H-pyrazol-5-yl)-3-(1H-pyrazol-5-yl)-[1,2]thiazolo[4,5-b]pyridin-5-yl]morpholine]
< 100 | 553 | CS(=O)(=O)C1(c2cc(N3C[C@H]4CC[C@@H](C3)O4)nn3c(-c4ccn[nH]4)ncc23)CC1 [Example 32, (1R,5S)-3-(4-(1-(methylsulfonyl)cyclopropyl)-7-(1H-pyrazol-5-yl)imidazo[1,5-b]pyridazin-2-yl)-8-oxa-3-azabicyclo[3.2.1]octane]
< 100 | 162 | Cc1nnn(C)c1-c1cc(N2CCOC[C@H]2C)nn2c(-c3ccn[nH]3)ncc12 [Example 33, (3R)-4-[4-(dimethyl-1H-1,2,3-triazol-5-yl)-7-(1H-pyrazol-5-yl)imidazo[1,5-b]pyridazin-2-yl]-3-methylmorpholine]
< 100 | 23 | Cc1cc(-c2ncc3c(-c4ccnn4C)cc(N4CCOC[C@H]4C)nn23)[nH]n1 [Example 34, (R)-3-methyl-4-(4-(1-methyl-1H-pyrazol-5-yl)-7-(3-methyl-1H-pyrazol-5-yl)imidazo[1,5-b]pyridazin-2-yl)morpholine]
< 100 | 15.9 | C[C@@H]1COCCN1c1cc(C2(C#N)CC2)c2snc(-c3ccn[nH]3)c2n1 [Example 51, (R)-1-(5-(3-methylmorpholino)-3-(1H-pyrazol-5-yl)isothiazolo[4,5-b]pyridin-7-yl)cyclopropane-1-carbonitrile]
